Measurements published in article PMC7064771, “Repurposed Drugs That Block the Gonococcus-Complement Receptor 3 Interaction Can Prevent and Cure Gonococcal Infection of Primary Human Cervical Epithelial Cells” (mBio, 2020).
“Also recorded” adds a separate entry of the source.

What was measured:
N. gonorrhoeae strains = assay: Well diffusion assay; format: cell-based, Neisseria gonorrhoeae; conditions: 100 pM to 100 μM in wells, overnight
Experimental: Well diffusion assays were performed essentially as described previously ([56]). Briefly, N. gonorrhoeae strains were spread uniformly across the surfaces of GC agar plates at a culture density of 10^7 bacteria per ml. Wells were then punctured within the agar surface to which carbamazepine or methyldopa (100 pM to 100 μM), 0.2 μg/ml ceftriaxone, 10 μg/ml ciprofloxacin, or 1% DMSO (vehicle control) was added. Following an overnight incubation (37°C, 5% CO2), inhibition of N. gonorrhoeae growth was measured as the diameter (in millimeters) of the area of clearing surrounding (and inclusive of) each well on each agar plate, i.e., the zone of inhibition (ZOI). For agar plates in which a ZOI was not visible, data were recorded as the diameter of the well (6 mm). Assays were performed in triplicates on 3 separate occasions. Statistical significance of data obtained was determined using a Student's t test.

[1] = orally administered, prescribed use; cited from earlier work
[2] = tested on: N. gonorrhoeae infection of Pex cells
Experimental: Infection studies were performed as previously described with modification using a multiplicity of infection of 100 ([44]). To establish infection before treatment, Pex cells were challenged with N. gonorrhoeae for 90 min. The infection medium was then removed, the cells were rinsed thrice, and fresh medium containing 0.1% DMSO (vehicle control), carbamazepine (100 pM to 100 μM), methyldopa (100 pM to 100 μM), or ceftriaxone (0.1 μg/ml or 0.5 μg/ml, positive control) was added. Infections then proceeded for an additional 24 h or 48 h, after which, the infection medium was removed. Pex cell monolayers were subsequently lysed, serial dilutions of the Pex cell lysates were plated, and viable gonococci were enumerated by counting CFU after 48 h of incubation (37°C, 5% CO2). For sequential infection assays, viable bacterial colonies that survived a treatment assay were harvested from the enumeration (CFU) plates and used to inoculate new Pex cell monolayers. For these sequential assays, each infection (the original infection or the infection with bacteria that had survived the original infection) proceeded for 24 h. Pex cells were then processed, and bacteria were enumerated, as described above. For all assays, the percentage of N. gonorrhoeae that survived carbamazepine, methyldopa, or ceftriaxone treatment was determined as a function of bacteria that survived DMSO treatment (set to 100%). All assays were performed in triplicates on 3 separate occasions. A nonparametric ANOVA was used to determine the statistical significance of bacterial survival.

human rI-domain [3] = target: T1, human rI-domain (Homo sapiens, UniProt P11215); assay: Repurposed drug SPR against human CR3 I-domain (single-cycle kinetics); conditions: 10 nM to 0.625 nM, read-out: KD, binding to human rI-domain
T1 construct: Recombinant human and mouse I-domain proteins were made and purified as previously described; made in house
Experimental: Human rI-domain was immobilized onto a CM5 sensor chip with a blank control flow cell as described above. A combination of two FDA-approved drug libraries, Microsource-CPOZ (2,400 drugs) and ML Drug (741 drugs), was purchased from Compounds Australia. […] A single-concentration injection screen (yes/no) binding assay was performed. Binding was determined based on the response unit shift (equal to the molecular weight-corrected response units of the positive-control glycan) of the stability of the binding phase of the dissociation cycle. […] For carbamazepine and methyldopa, saturation occurred between 1.6 nM and 8 nM, and so a new concentration range (10 nM to 0.625 nM) was tested. […] All SPR sensorgrams and result plots described above were analyzed with Biacore S200 evaluation software (GE Healthcare Life Sciences). A literature review was used to evaluate the remaining drugs for known long-term safety in humans and known therapeutic concentrations.

[4] = tested on: N. gonorrhoeae adherence to CHO-neo cells; assay: Fluorometric adherence assay, CHO-neo cells; format: cell-based, Chinese hamster; conditions: 1-h infection; cells do not express CR3
Experimental: (§1) Fluorometric adherence assays were performed essentially as described previously ([36]). In brief, N. gonorrhoeae MS11 gfp was used to challenge (1 h) Pex or CHO cells simultaneously with peptide or drug competitor. Infected (devoid of peptide or drug) and uninfected (with peptide, drug, or dimethyl sulfoxide [DMSO] vehicle) control cell assays were treated in parallel with competitive peptide/drug inhibition assays. Fluorescence (485 nm excitation, 528 nm emission) intensity, corresponding to bacterial adherence, was recorded using a Synergy HT multimode microplate reader (BioTek Instruments, Winooski, VT, USA). Blank wells, devoid of Pex or CHO cells, were inoculated with bacteria and served as a control for nonspecific binding. Each assay was performed in triplicates on 3 separate occasions. Peptides used are described in Table S1. A nonparametric analysis of variance (ANOVA) was used to determine the statistical significance of the calculated mean of bacterial adherence.

[5] = tested on: N. gonorrhoeae adherence to Pex cells; assay: Fluorometric adherence assay, Pex cells; format: cell-based, human; conditions: 1-h infection with GFP-expressing N. gonorrhoeae, competitor added simultaneously
Experimental: as §1

[6] = tested on: N. gonorrhoeae adherence to CHO-CR3 cells; assay: Fluorometric adherence assay, CHO-CR3 cells; format: cell-based, Chinese hamster; conditions: 1-h infection with GFP-expressing N. gonorrhoeae, competitor added simultaneously
Experimental: as §1

human rI-domain [7] = target: T1, human rI-domain; assay: Direct competition SPR, drug versus N. gonorrhoeae MS11 pilin; format: binding; conditions: drug and pilin at 1 μM

T1 sequence (P11215 150-328 limits assumed): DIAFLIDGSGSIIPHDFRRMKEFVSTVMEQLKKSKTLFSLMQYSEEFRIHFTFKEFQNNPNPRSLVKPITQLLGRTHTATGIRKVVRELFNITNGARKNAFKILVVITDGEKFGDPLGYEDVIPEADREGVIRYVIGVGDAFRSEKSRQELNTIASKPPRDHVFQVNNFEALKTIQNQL

Which results are given for `NC(=O)N1c2ccccc2C=Cc2ccccc21` [carbamazepine]?
Effect on gonococcal viability in the absence of Pex cells (zone of inhibition) (N. gonorrhoeae strains): neither carbamazepine nor methyldopa had an effect; also recorded: no effect; Concentration in serum [1]: ~17 µM; N. gonorrhoeae strain MS11 survival ([2]; 24 h posttreatment, 100 pM to 100 μM): dose-dependent reductions; Numbers of viable gonococci, low-passage-number gonococcal isolates ([2]; 24 h posttreatment, established Pex cell infections): significant reductions; Killing of survivor population in second sequential infection ([2]; bacteria harvested from a 24-h treated infection, re-used and treated again for 24 h): 100%; Efficacy in treating multidrug-resistant gonococci compared with ceftriaxone ([2]; panel of multidrug-resistant N. gonorrhoeae isolates): more effective than ceftriaxone; Kd (human rI-domain [3]): 2.12 nM; Gonococcal adherence to CHO-neo cells (fluorescence) [4]: no effect; also recorded: but not to CHO-neo cells; Gonococcal adherence to Pex cells (fluorescence) [5]: dose-dependent decrease; also recorded: decreased in a dose-dependent manner; Gonococcal adherence to CHO-CR3 cells (fluorescence) [6]: dose-dependent decrease; also recorded: decreased in a dose-dependent manner; Blocking of the interaction of N. gonorrhoeae MS11 pilin with rCR3 or rI-domain (human rI-domain [7]): completely blocked
